This passage reports IC50 results from patent publication US20130245275A1, “PHENYL DIAMIDES AND A PHARMACEUTICAL PREPARATION COMPRISING PHENYL DIAMIDES” (Rheinische Friedrich-Wilhelms Universitaet Bonn, priority 2010, published 2013).

The test system of one assay is U87 wt. In words: glioblastoma proliferation assay (MTT), U87 wt. The assay is classed as cell-based. Particulars: Homo sapiens, U87WT, 72 hours, at least 3 times, read-out: IC50 values of the inhibition of the proliferation in the cell line U87 wt. The procedure:
The effect of the phenyl diamides according to formulas (5) to (18) on the proliferation of Glioblastoma cells was tested in two pairs of established human glioblastoma cell lines, Gli36 and U87. Human Gli36 wt, U87 wt and U87 EGFRvIII cells were a gift from Prof. Dr. Andreas H. Jacobs, European Institute for Molecular Imaging, Munster, Germany. The cells were maintained in DMEM (PAA) supplemented with 10% fetal calf serum (FCS, Lonza), 1% Penicillin/Streptomycin (PAA) and 110 μg/ml Sodiumpyruvat (Sigma-Aldrich) and were grown at 37° C., 5% CO2.
3000 cells per 96 well were seeded into a clear, flat bottom 96 well plate (TPP). After 24 hours the cells were washed twice in 1×DPBS (PAA) and treated with 250 nM of the phenyl diamides according to formulas (5) to (18) in DMEM (PAA) supplemented with 1% FCS (Lonza), 1% Penicillin/Streptomycin (PAA) and 110 μg/ml Sodiumpyruvat (Sigma-Aldrich). Controls were treated with Dimethyl sulfoxide (DMSO) as solvent in an end concentration of 0.4% (v/v). A further control was performed with the control compound according to formula (XH1009). Medium was changed daily.
(§1) After 72 hours cell proliferation was quantified by using a commercially available 3-(4,5-dimethylthiazol-2-yl)-2,5diphenyltetrazolium bromide (MTT) assay (Cell Titer 96® Non-Radioactive Cell Proliferation Assay, Promega) as described in the manufacture's protocol. Briefly, 15 μl of Dye solution was added directly into the 100 μl media of the cells. After 4 hours incubation at 37° C., 5% CO2, 100 μl solubilization solution was added to solubilize the formazan product and the absorbance at 570 nm was measured in a Varioscan microplate reader (Thermo Scientific). All assays were performed at least in triplicates. For calculation of the relative proliferation rate/cell number the mean absorbance in the solvent DMSO only treated cells was set as 1. Results are given as the mean+/−standard error.
The FIGS. 2 and 3 show the relative cell numbers in the wild type glioblastoma cell line U87 wt (FIG. 2) and Gli36 wt (FIG. 3) normalized to the DSMO treated control after 72 h incubation with the respective phenyl diamides according to formulas (5) to (18), the DSMO treated control compound determined with a MTT proliferation essay. Data were normalized with the exchange in the solvent (DMSO) only control set as 1 and represent the mean values of duplicates, error bars correspond to standard error of the mean (SEM).
(§2) U87 wt and U87 EGFRvIII cells were a gift from Prof. Dr. Andreas H. Jacobs, European Institute for Molecular Imaging, Münster, Germany. The cells were maintained in DMEM (PAA) supplemented with 1% FCS (Lonza), 1% Penicillin/Streptomycin (PAA) and 110 μg/ml Sodiumpyruvat (Sigma-Aldrich) and were grown at 37° C., 5% CO2.
(§3) 300 cells per 96 well were seeded into a clear, flat bottom 96 well plate (TPP). After 24 hours the cells were washed twice in 1×DPBS (PAA) and treated with concentrations ranging from 2.5 nM to 2 μM of the phenyl diamides according to formulas (5) to (18) or 5 μM of the control compound (XH1009) in DMEM (PAA) supplemented with 1% FCS (Lonza), 1% Penicillin/Streptomycin (PAA) and 110 μg/ml Sodiumpyruvat (Sigma-Aldrich). Controls were treated with Dimethyl sulfoxide (DMSO) as solvent in an end concentration of 0.4% (v/v). Medium was changed daily.
(§4) Further, the IC50 values of the inhibition of the proliferation was determined. The IC50 value was determined by plotting the relative cell number against the added concentrations of the amide. The IC50 value corresponds to the concentration of the phenyl diamides at which the proliferation is reduced to half. The lower the IC50 value, the more strongly the phenyl diamide inhibits proliferation.

Another assay has as its system glioblastoma cells. In words: glioblastoma cell proliferation, cell line not stated (summary statements). Type of assay: cell-based. Particulars: read-out: IC50 for the proliferation inhibition.
Assay [1] deals with T1, sec7-domain of cytohesin-2 (ARNO) (Homo sapiens, UniProt Q99418).
T1 construct: ARNO-Sec7 (amino acids 50-255 of ARNO) were expressed in Escherichia coli; made in house; host or cells: Escherichia coli
T1 sequence (Q99418 50-255): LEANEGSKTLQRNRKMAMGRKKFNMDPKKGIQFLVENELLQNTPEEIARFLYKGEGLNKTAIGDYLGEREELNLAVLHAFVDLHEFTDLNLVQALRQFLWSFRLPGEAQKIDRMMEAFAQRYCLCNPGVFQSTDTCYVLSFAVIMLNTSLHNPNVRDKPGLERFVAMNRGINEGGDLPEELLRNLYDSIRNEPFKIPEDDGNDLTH
In words: guanine nucleotide exchange assay (GDP/GTP exchange on [Δ17]ARF1, tryptophan fluorescence). Type of assay: biochemical. Particulars: isolated Sec-7 domain, each experiment at least 8 times, read-out: IC50 values measured for the isolated Sec-7 domain of cytohesin-2. The procedure:
The inhibition of the exchange activity of the sec7-domain of cytohesin-2 (ARNO) of the phenyl diamides according to formulas (5) to (18) was determined by a guanine nucleotide exchange assay.
The sec7-domain of cytohesin-2 (ARNO) and [Δ17]ARF1, a mutant of the ADP-ribosylation factor (ARF) protein, were subcloned into pET15 vectors (Novagen) as described in Hafner, M. et al. Nature 444, 941-944 (2006). N-terminal truncated [Δ17]ARF1 (amino acids 18-181), lacking the first 17 amino acids and ARNO-Sec7 (amino acids 50-255 of ARNO) were expressed in Escherichia coli and purified by Ni-NTA chromatography (Ni-NTA agarose, Qiagen).
The exchange from […] (GDP) to […] (GTP) induces a conformation change of the ribosylation factor, as a result of which the fluorescence of a tryptophan radical of the protein is increased. GDP/GTP exchange was measured on [Δ17]ARF1 by tryptophan fluorescence because a large increase in intrinsic fluorescence of ARF occurs upon exchange of GDP for GTP. All measurements were performed in PBS (137 mM NaCl, 2.7 mM KCl, 10.2 mM Na2HPO4, 1.8 mM KH2PO4) pH 7.4, 3 mM MgCl2 at 37° C.
[Δ17]ARF1 (1 μM) in PBS without MgCl2 was preincubated with 80 μM GDP in the presence of 2 mM ethylenediaminetetraacetic acid (EDTA) for 15 minutes. The bound GDP was stabilized by addition of MgCl2 at a final concentration of 3 mM and incubation for 5 minutes. For each exchange reaction 250 nM [Δ17]ARF1 was mixed with 10 nM ARNO-Sec7 (total volume 200 μl) in the absence or presence of the phenyl diamides according to formulas (5) to (18). The reaction was started by injection of 50 μM GTP.
The tryptophan fluorescence was measured at excitation and emission wavelength of 280 nm and 340 nm respectively. All fluorescent measurements were performed with a Varioskan microplate reader (Thermo Scientific), in 96-well plates. For analysis all data were fitted by linear regression.
The relative exchange rate was determined by comparing the initial linear rise of the fluorescence signal (exchange rate) in the presence of 2.5 μM of the phenyl diamides according to formulas (5) to (18) with the exchange rate in the presence of the solvent Dimethyl sulfoxide (DMSO), 0.4% end concentration, only. A further control was performed with the control compound according to formula (XH1009) as indicated below: […]
Further, the IC50 value of the inhibition of the sec7-domain of the isolated cytohesin-2 was determined. The IC50 value was determined by plotting the initial linear rise of the fluorescence signal against the added concentrations of the amide. The IC50 value corresponds to the concentration of the phenyl diamides at which the activity of the protein is reduced to half. The lower the IC50 value, the more strongly the phenyl diamide inhibits the sec7-domain.

A further assay has as its system U87 EGFRvIII. In words: glioblastoma proliferation assay (MTT), U87 EGFRvIII; selectivity of the inhibition. Particulars: Homo sapiens; U87 EGFRvIII, 72 hours, MTT, at least 3 times; read-out: IC50 values of the inhibition of the proliferation in the cell line U87 EGFRvIII. The assay is classed as cell-based, human. As for the experimental part: as §2, §3, §1, §4

Turning to `CC(C)(C)c1ccc(C(=O)Nc2ccc(NC(=O)c3ccc4c(c3)OCCO4)cc2)cc1` [formula (18)], the IC50 with U87 wt is 297 nM; in the assay with glioblastoma cells, < 2000 nM; in assay [1], 1340 nM; in the assay with U87 EGFRvIII, 105 nM.
